# Results published in patent publication US20230364069A1, “METHOD FOR TREATING NON-ALCOHOLIC STEATOHEPATITIS THROUGH CO-ADMINISTRATION OF CURCUMIN DERIVATIVE AND TGF-B RECEPTOR INHIBITOR” (UNIVERSITY INDUSTRY FOUNDATION, YONSEI UNIVERSITY WONJU …, priority 2021, published 2023).
# What was measured:
# [1] = test system: liver fibrosis model; settings: carbon tetrachloride (CCL4) administration and bile duct ligation; previous studies; cited from earlier work
# [2] = test system: lung fibrosis model; settings: bleomycin (BLM); previous studies; cited from earlier work
# [3] = test system: C57BL/6 mice in which steatohepatitis was induced with a methionine-choline deficient diet; assay: Steatohepatitis animal model (MCD), curcumin 5-8 and low-concentration EW-7197 (5 mg/kg); format: in vivo, mouse; settings: MCD-fed C57BL/6 mice, 6 weeks; EW-7197 5 mg/kg oral; curcumin 5-8 1 g per 1 kg diet
# Procedure: 8-week-old male C57BL/6 mice weighing 20 to 25 g were purchased from Dae Han Bio Link Co., Ltd. (Chungbuk). […] Mice were fed with a normal diet (Research Diets, RD) and allowed to drink water freely. […] In order to confirm the physiological changes in case of co-administration of a curcumin derivative (Cur5-8) and a TGF-β receptor inhibitor (EW-7197), the liver weights and the concentrations of TG, TC, AST, ALT, and γ-GT in serum were measured. In addition, hydroxyprolin expression was checked as a fibrosis marker in the liver tissues. Specifically, the weights of the liver tissues harvested in Examples 2-1 and 2-2 were measured before storage. […] In order to measure blood glucose, triglyceride, cholesterol, and AST and ALT concentrations, ELISA kit of Asan Pharm. Co., Ltd. was purchased, and the measuring was performed. γ-GT in the liver was measured by using Mak089 of Sigma-Aldrich, and hydroxyproline was measured by using STA-675 ELISA kit of Cell Biolabs, Inc. In addition, the hydroxyprolin expression was checked in the liver tissues harvested in Examples 2-1 and 2-2. In order to check effects of inhibiting fat accumulation in liver tissues and fibrosis in liver tissues in case of co-administration of a curcumin derivative (Cur5-8) and a TGF-β receptor inhibitor (EW-7197), the liver tissues were stained. The liver tissues harvested in Examples 2-1 and 2-2 were fixed with 10% formaldehyde, the formaldehyde was washed out with running water for more than 12 hours, and then washing was performed with 60% ethanol at a one-hour interval, with 70% ethanol at a one-hour interval, and with 100% ethanol at a one-hour interval. Then, the transparency process in xylene was performed three times for one hour each, and the infiltration process in paraffin was performed twice for one hour each. Then, the paraffin block was cut to a thickness of about […] to obtain slices. […] In addition, H&E-stained liver slices were evaluated by using the NAFLD activity score (NAS) system. […]
# [4] = test system: renal fibrosis model; settings: unilateral ureteral obstruction (UUO); previous studies; cited from earlier work
# [5] = test system: C57BL/6 mice in which steatohepatitis was induced with a methionine-choline deficient diet; assay: Steatohepatitis animal model (MCD), curcumin 5-8 and high-concentration EW-7197 (40 mg/kg); format: in vivo, mouse; settings: for fat accumulation in the liver tissues / fibrosis of liver tissues: MCD-fed mice, EW-7197 40 mg/kg, Western blotting, FIGS. 19 to 24; for fat accumulation in the liver tissues: H&E; for fibrosis of liver tissues: Picrosirius red, Masson's trichrome
# Procedure: 8-week-old male C57BL/6 mice weighing 20 to 25 g were purchased from Dae Han Bio Link Co., Ltd. (Chungbuk). Mice were acclimatized for one week under room temperature (25° C.±2° C.) in 60%±5% humidity and a 12-hour light/dark cycle. Mice were fed with a normal diet (Research Diets, RD) and allowed to drink water freely. Afterwards, the mice were randomly divided into five groups according to the fed diets or administered drugs, and the five groups were a group which was fed with a normal diet (Con), a group which was fed with a methionine-choline deficient diet (MCD), a group which was fed with a mixture of an MCD and curcumin 5-8 (1 g of curcumin 5-8 per 1 kg of the diet) (MCD+Cur5-8), a group which was fed with an MCD and to which EW-7197 was orally administered (MCD+EW), and a group which was fed with a mixture of an MCD and curcumin 5-8 and to which EW-7197 was orally administered together (MCD+EW+Cur5-8) (n=10).
# EW-7197 was administered directly to the stomach by an oral administration method once every two days at 40 mg/kg. Body weights were measured every week during the experiment period, and liver tissues were harvested after 6 weeks and stored at −80° C. All experiments were performed with the approval of the Institutional Animal Care and Use Committee at Wonju College of Medicine of Yonsei University (YWC-200907-1).
# In order to confirm the physiological changes in case of co-administration of a curcumin derivative (Cur5-8) and a TGF-β receptor inhibitor (EW-7197), the liver weights and the concentrations of TG, TC, AST, ALT, and γ-GT in serum were measured. In addition, hydroxyprolin expression was checked as a fibrosis marker in the liver tissues.
# Specifically, the weights of the liver tissues harvested in Examples 2-1 and 2-2 were measured before storage.
# In Examples 2-1 and 2-2, blood was collected after the experiment was completed, and concentrations of TG, TC, AST, ALT, and γ-GT in serum were measured. In order to measure blood glucose, triglyceride, cholesterol, and AST and ALT concentrations, ELISA kit of Asan Pharm. Co., Ltd. was purchased, and the measuring was performed. γ-GT in the liver was measured by using Mak089 of Sigma-Aldrich, and hydroxyproline was measured by using STA-675 ELISA kit of Cell Biolabs, Inc.
# In addition, the hydroxyprolin expression was checked in the liver tissues harvested in Examples 2-1 and 2-2.
# In order to check effects of inhibiting fat accumulation in liver tissues and fibrosis in liver tissues in case of co-administration of a curcumin derivative (Cur5-8) and a TGF-β receptor inhibitor (EW-7197), the liver tissues were stained.
# The liver tissues harvested in Examples 2-1 and 2-2 were fixed with 10% formaldehyde, the formaldehyde was washed out with running water for more than 12 hours, and then washing was performed with 60% ethanol at a one-hour interval, with 70% ethanol at a one-hour interval, and with 100% ethanol at a one-hour interval. Then, the transparency process in xylene was performed three times for one hour each, and the infiltration process in paraffin was performed twice for one hour each. Then, the paraffin block was cut to a thickness of about […] to obtain slices. After deparaffinization, the slices were stained with hematoxylin and eosin (H&E staining), and blood vessels and lipid droplets in the liver tissues were checked. […]
# In addition, H&E-stained liver slices were evaluated by using the NAFLD activity score (NAS) system. […]
SMILES,liver damage [1],tissue fibrosis (lung) [2],ALT [3] [IU/L],AST [3] [IU/L],TG [3] [mg/dL],tissue fibrosis (renal) [4],fat accumulation in the liver tissues [5],fibrosis of liver tissues [5],"AST (aspartate transaminase) ([5]; MCD-fed C57BL/6 mice, 6 weeks, EW-7197 40 mg/kg oral once every two days, curcumin 5-8 1 g per 1 kg diet) [IU/L]"
"Cc1cccc(-c2[nH]c(CNc3ccccc3F)nc2-c2ccc3ncnn3c2)n1 [EW-7197, N-(2-fluorophenyl)-5-(6-methyl-2-pyridinyl)-4-[1,2,4]triazolo[1,5-a]pyridin-6-yl-1H-imidazole-2-methanamine]",suppressing liver damage,suppressing tissue fibrosis,96.1 ± 17.96,159.6 ± 26.73,28.3 ± 4.84,suppressing tissue fibrosis,not inhibited,inhibited,–
"COc1cc(/C=C/C(=O)c2cccc(NC(=O)C(C)C)c2)ccc1O [Cur5-8, N-{3-[(2E)-3-(4-hydroxy-3-methoxyphenyl)prop-2-enoyl]phenyl}-2-methylpropanamide]",–,–,–,–,–,–,reduced,not improved,119.9 ± 3.80
